Assay results from paper doi:10.1101/2025.02.12.637899v1 (biorxiv, 2025).
Like-named read-outs stand apart in the source and are kept apart here. Each block holds one molecule with its values, some of them ahead of it.

How the values were obtained:
[1] = target: T1, hP2X7R (full-length wild-type human P2X7 receptor) (Homo sapiens, UniProt Q99572); assay: two-electrode voltage clamp, Xenopus oocytes; assay type: cell-based
T1 construct: gene P2RX7; full-length wild-type homotrimer; structures: C-terminal GFP, 3C site and His tag, digested with HRV 3C, from HEK293 / HEK293 GNTI- cells; BLI: biotinylated receptor; TEVC: untagged in Xenopus oocytes; calcium influx: 1321N1 cells; ethidium uptake: HEK293 cells
T1 sequence (Q99572 1-595): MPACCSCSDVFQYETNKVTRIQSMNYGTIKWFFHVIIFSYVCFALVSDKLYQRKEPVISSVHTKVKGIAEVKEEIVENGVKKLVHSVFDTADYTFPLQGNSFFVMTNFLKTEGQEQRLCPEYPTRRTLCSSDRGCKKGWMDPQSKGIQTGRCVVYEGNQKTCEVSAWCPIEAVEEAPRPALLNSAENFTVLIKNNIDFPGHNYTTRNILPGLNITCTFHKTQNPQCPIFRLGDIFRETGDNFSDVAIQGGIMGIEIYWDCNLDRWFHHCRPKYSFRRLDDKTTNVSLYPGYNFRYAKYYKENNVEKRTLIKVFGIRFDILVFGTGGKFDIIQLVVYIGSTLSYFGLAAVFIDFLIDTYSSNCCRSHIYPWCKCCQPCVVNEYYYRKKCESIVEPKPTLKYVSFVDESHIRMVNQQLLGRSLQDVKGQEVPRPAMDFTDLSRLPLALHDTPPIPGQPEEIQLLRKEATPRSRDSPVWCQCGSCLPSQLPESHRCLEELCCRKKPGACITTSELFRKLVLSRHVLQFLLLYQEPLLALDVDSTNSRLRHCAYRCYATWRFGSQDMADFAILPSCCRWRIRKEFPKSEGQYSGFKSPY

[2] = target: T2, rP2X7R (full-length wild-type rat P2X7 receptor) (Rattus norvegicus, UniProt Q64663); assay: two-electrode voltage clamp, Xenopus oocytes; assay type: cell-based
T2 construct: gene P2rx7; full-length wild-type homotrimer; untagged in Xenopus oocytes for TEVC
T2 sequence (Q64663 1-595): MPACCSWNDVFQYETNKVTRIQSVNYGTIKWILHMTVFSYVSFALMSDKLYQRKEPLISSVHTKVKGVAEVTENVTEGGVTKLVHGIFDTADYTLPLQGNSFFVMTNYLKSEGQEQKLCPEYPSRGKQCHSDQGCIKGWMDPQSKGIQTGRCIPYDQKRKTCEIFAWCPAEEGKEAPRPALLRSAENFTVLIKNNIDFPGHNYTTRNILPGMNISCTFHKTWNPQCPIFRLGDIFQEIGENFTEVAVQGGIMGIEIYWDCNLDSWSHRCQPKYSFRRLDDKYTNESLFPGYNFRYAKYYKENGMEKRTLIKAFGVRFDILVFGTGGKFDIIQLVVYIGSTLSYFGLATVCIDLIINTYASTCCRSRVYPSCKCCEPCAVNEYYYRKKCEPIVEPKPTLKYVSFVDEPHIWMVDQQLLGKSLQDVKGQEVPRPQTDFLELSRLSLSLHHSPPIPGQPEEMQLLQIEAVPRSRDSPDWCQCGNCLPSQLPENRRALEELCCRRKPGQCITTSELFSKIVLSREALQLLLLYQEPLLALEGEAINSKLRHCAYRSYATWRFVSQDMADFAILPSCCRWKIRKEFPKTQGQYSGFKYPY

[3] = target: T1, hP2X7R (full-length wild-type human P2X7 receptor); assay: bio-layer interferometry, kinetic […] fit; assay type: binding
[4] = target: T3, mP2X7R (full-length wild-type mouse P2X7 receptor) (Mus musculus, UniProt Q9Z1M0); assay: two-electrode voltage clamp, Xenopus oocytes; assay type: cell-based
T3 construct: gene P2rx7; full-length wild-type homotrimer; untagged in Xenopus oocytes for TEVC
T3 sequence (Q9Z1M0 1-595): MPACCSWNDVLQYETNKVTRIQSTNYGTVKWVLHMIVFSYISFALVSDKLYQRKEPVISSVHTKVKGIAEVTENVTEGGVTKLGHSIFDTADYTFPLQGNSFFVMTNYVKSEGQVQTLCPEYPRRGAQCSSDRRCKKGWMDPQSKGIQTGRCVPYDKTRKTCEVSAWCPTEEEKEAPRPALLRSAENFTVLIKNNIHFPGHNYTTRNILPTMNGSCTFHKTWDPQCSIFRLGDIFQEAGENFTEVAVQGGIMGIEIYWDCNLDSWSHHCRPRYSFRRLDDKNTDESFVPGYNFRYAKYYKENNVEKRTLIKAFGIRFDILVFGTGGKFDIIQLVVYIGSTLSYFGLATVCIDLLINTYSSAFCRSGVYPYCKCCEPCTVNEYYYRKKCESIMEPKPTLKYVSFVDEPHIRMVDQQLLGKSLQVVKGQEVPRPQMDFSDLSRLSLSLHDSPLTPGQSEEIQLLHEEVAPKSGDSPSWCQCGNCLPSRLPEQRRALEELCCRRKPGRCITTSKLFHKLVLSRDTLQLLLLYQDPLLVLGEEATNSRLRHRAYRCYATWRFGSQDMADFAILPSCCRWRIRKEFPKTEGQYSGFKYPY

[5] = target: T4, hP2X3R (human P2X3 receptor, S15V mutant) (Homo sapiens, UniProt P56373, S15V); assay: calcium influx (Calcium […]), […]1 cells; assay type: cell-based
T4 construct: gene P2RX3; S15V mutant to prevent fast desensitization; stably expressed in 1321N1 astrocytoma cells by retroviral system
T4 sequence (P56373 1-397 S15V): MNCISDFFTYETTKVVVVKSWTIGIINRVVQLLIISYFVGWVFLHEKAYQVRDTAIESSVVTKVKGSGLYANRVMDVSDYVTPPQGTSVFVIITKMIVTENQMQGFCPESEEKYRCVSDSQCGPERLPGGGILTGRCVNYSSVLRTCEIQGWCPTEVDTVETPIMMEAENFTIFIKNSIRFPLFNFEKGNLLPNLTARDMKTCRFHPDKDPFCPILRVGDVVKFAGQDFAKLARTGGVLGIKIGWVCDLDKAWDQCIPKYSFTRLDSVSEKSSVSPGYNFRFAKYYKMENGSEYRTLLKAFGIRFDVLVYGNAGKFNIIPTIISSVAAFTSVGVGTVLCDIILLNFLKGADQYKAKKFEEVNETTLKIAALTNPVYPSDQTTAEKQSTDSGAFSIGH

[6] = target: T3, mP2X7R (full-length wild-type mouse P2X7 receptor); assay: calcium influx (Fluo-4), […]1 cells; assay type: cell-based
[7] = target: T5, hP2X4R (human P2X4 receptor) (Homo sapiens, UniProt Q99571); assay: calcium influx (Fluo-4), […]1 cells; assay type: cell-based
T5 construct: gene P2RX4; stably expressed in 1321N1 astrocytoma cells by retroviral system
T5 sequence (Q99571 1-388): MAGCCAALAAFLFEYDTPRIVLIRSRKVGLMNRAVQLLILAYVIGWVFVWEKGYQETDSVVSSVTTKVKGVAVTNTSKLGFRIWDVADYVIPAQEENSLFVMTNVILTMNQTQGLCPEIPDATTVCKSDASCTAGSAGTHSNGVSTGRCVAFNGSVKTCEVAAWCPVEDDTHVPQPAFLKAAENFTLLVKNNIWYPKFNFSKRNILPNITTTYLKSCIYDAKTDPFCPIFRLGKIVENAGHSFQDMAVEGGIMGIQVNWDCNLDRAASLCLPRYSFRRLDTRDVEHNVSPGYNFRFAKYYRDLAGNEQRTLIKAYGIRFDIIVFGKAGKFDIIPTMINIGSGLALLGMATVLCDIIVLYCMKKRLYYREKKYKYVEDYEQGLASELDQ

[8] = target: T1, hP2X7R (full-length wild-type human P2X7 receptor); assay: calcium influx (Fluo-4), […]1 cells; assay type: cell-based; conditions: agonist BzATP at EC80; allosteric antagonist, classical allosteric site; pH 7.4
[9] = target: T2, rP2X7R (full-length wild-type rat P2X7 receptor); assay: calcium influx (Fluo-4), […]1 cells; assay type: cell-based
[10] = target: T6, hP2X2R (human P2X2 receptor) (Homo sapiens, UniProt Q9UBL9); assay: calcium influx (Fluo-4), […]1 cells; assay type: cell-based
T6 construct: gene P2RX2; stably expressed in 1321N1 astrocytoma cells by retroviral system
T6 sequence (Q9UBL9 1-471): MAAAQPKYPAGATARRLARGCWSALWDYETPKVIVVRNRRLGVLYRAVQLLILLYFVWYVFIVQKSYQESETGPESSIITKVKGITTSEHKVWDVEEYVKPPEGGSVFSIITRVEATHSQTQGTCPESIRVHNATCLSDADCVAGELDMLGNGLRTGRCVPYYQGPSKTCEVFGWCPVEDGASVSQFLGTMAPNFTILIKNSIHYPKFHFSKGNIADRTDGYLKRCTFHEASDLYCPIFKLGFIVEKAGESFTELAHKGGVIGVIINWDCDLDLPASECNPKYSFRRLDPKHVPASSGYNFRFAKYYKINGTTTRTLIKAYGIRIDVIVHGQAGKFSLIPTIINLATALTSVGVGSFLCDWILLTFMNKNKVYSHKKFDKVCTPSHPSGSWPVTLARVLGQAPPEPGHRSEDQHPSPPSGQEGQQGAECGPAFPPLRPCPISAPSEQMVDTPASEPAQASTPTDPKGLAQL

[11] = target: T1, hP2X7R (full-length wild-type human P2X7 receptor); assay: ethidium bromide accumulation, HEK293 cells expressing hP2X7R; assay type: cell-based
From the text: ethidium bromide accumulation, HEK293 cells expressing hP2X7R on hP2X7R (full-length wild-type human P2X7 receptor)

- IC50 [11]: > 1000 nM
SMILES: CC12CC3(C)CC(C)(C1)CC(C(=O)NNc1ccccc1Cl)(C2)C3 [UB-ALT-P37]

- IC50 [11]: 430 ± 64 nM
SMILES: O=C(NNc1ccccc1Cl)C12C3C4C5C3C1C5C42 (stereo not drawn) [UB-ALT-P38]

- IC50 ([6]; agonist BzATP at EC80, pH 7.4): 4.52 ± 0.72 nM
- IC50 ([9]; agonist BzATP at EC80, pH 7.4): 40.6 ± 10.4 nM
SMILES: CC12CC3CC1(C)C1(C)CC3(C(=O)NNc3ccccc3Cl)CC21C [UB-MBX-46]

The remaining lines, values behind:

SMILES: Nc1ncnc2c1ncn2[C@@H]1O[C@H](COP(=O)(O)OP(=O)(O)OP(=O)(O)O)[C@@H](O)[C@H]1O [ATP]
- EC50 [1]: 89000 ± 8300 nM
- EC50 [2]: 34000 ± 8400 nM
- Kd [3]: 650 ± 120 nM
- EC50 [4]: 70000 ± 17000 nM

SMILES: O=C(NNc1ccccc1Cl)C12CC3CC(CC(C3)C1)C2 [UB-ALT-P30]
- inhibition at 10 µM [5]: 86 ± 9%
- IC50 [6]: 150 ± 27 nM
- inhibition at 10 µM [7]: 44 ± 14%
- IC50 [8]: 18 ± 8.3 nM
- IC50 [9]: 120 ± 50 nM
- inhibition at 10 µM [10]: 29 ± 7%

SMILES: CC12CC3CC(C)(C1)CC(C(=O)NNc1ccccc1Cl)(C3)C2 [UB-ALT-P36]
- IC50 [11]: 477 ± 170 nM
